Results: patent EP4506003A1, “HALOGEN DERIVATIVES OF (4´,5´- METHYLENEDIOXYPHENYL)-6,7-DIMETHOXY-1,2,3,4-TETRAHYDROISOQUINOLINE FOR USE IN THE TREATMENT OF LEUKEMIA” (S.Yu Yunusov Institute of Chemistry of Plant Substances of …, priority 2023, dated 2025)
Marks after values point to notes of the source that are not given here.

Legend:
[1] = system: CCRF-CEM (CCL-119) (T-lymphoblastic leukemia); assay: MTT cytotoxicity on CCRF-CEM cells; assay type: cell-based; settings: 24 hours
Procedure: (§1) The cytotoxic properties of the compounds were determined in vitro using the MTT method in 96-well plates (Costar, USA). […] Rat liver hepatocytes were obtained according to the method, human blood mononuclear cells - according to [23]. Fibroblast cells were obtained according to the method of [24] with some modifications. Cell cultures were subcultured into 96-well plates according to the method of [21] by adding 100 μl of nutrient medium. The CCRF-CEM suspension culture was poured into a tube, centrifuged at 800 rpm for 10 minutes, and the supernatant was discarded. […] Data obtained in 3 independent experiments were expressed as the mean value for each concentration ± standard error of the mean, relative to the control values (cells without test compounds). The cytotoxic effect of each of the studied compounds was compared with the effect of the cytostatic Cisplatin-Naprod (India), containing cisplatin as an active component. Table 1: IC50 μM value for test compounds

fibroblasts = assay: MTT cytotoxicity on fibroblasts; assay type: cell-based; settings: 24 hours
Procedure: as §1

Rat liver hepatocytes = assay: MTT cytotoxicity on hepatocytes; assay type: cell-based; settings: 24 hours
Procedure: as §1

[2] = system: blood of patients with leukemia (combined group); assay: Hemogram of blood of patients with leukemia (combined group) after exposure; assay type: cell-based; settings: 10 µg/ml, 3 hours, 37.0°C
Excerpt: (§3) The effect of compounds F1 and F2 was studied on biological material (blood) of patients with hematological malignancies (leukemia), as well as for individual nosologies, in particular, patients with leukemia (combined group) (n=224), T-ALL (n=84), B-ALL (n=100), ALL (n=100), AML (n= 98), AML (n=94) and AML (n= 98) were studied. A total of 798 blood samples from patients with leukemia were examined.
(§4) The drugs Cytosar (Alexan) (Ebewe Pharma, Austria) and doxorubicin (Naprod, Mumbai, India) recommended by WHO for the treatment of the above oncohematological diseases were used as comparison drugs.
(§5) 5 ml of venous blood from sick and conditionally healthy individuals were collected into Vacutainer tubes with the addition of EDTA (Himedia, India).
(§6) The resulting blood was divided into aliquots of 1 ml and 10 µl (10 µg/ml) of the studied drugs (cytosar, doxorubicin, F1 and F2) were added to each tube.

[3] = system: blood of patients with T-ALL; assay: Hemogram of blood of patients with T-ALL after exposure; assay type: cell-based; settings: 10 µg/ml, 3 hours, 37.0°C
Excerpt: as §3, §4, §5, §6

[4] = system: blood of patients with B-ALL; assay: Hemogram of blood of patients with B-ALL after exposure; assay type: cell-based; settings: 10 µg/ml, 3 hours, 37.0°C
Procedure: A total of 798 blood samples from patients with leukemia were examined.
as §4, §5, §6

[5] = system: blood of patients with ALL; assay: Hemogram of blood of patients with ALL after exposure; assay type: cell-based; settings: 10 µg/ml, 3 hours, 37.0°C
Procedure: as §3, §5, §6

[6] = system: blood of patients with AML; assay: Hemogram of blood of patients with AML after exposure (Example 12, Table 9); assay type: cell-based; settings: AML (Table 9); 10 µg/ml; 3 hours, 37.0°C
Procedure: as §4, §5, §6

[7] = system: blood of patients with AML; assay: Hemogram of blood of patients with AML after exposure (Example 13, Table 10; also OMML); assay type: cell-based; settings: AML (Table 10); 10 µg/ml; 3 hours, 37.0°C
Procedure: as §4, §5, §6

[8] = system: blood of patients with AML; assay: Hemogram of blood of patients with AML after exposure (Example 14, Table 11); assay type: cell-based; settings: AML (Table 11); 10 µg/ml; 3 hours, 37.0°C
Excerpt: as §3, §4, §5, §6

[9] = system: blood of conditionally healthy individuals; assay: Hemogram of blood of conditionally healthy individuals after exposure to the drugs; settings: 10 µg/ml, 3 hours, 37.0°C
Procedure: as §5, §6

[10] = Acute toxicity study (LD50); settings: both, outbred white, mouse, in vivo, ip
Procedure: (§2) We studied the acute toxicity of compound F1 in vivo. The experiments were carried out on outbred white mice of both sexes weighing 18-20 g (24 pcs.). The animals were divided into groups of 12 mice each. The compound was dissolved in DMSO and then adjusted to the desired concentration with 0.9% NaCl solution and administered intraperitoneally and subcutaneously in a dose range from 5.0 to 200.0 mg/kg. […] The maximum relative error of the applied dose was no more than 5%.
as §2, with “F2” for “F1”, “brought” for “adjusted”, “subcutaneously to animals” for “subcutaneously”, “administered” for “applied”

## N.N.[Cl][Pt][Cl] [Cisplatin, cisplatin, reference compound]
[1]
  IC50: 12.4 µM
fibroblasts
  IC50: 29.4 µM
Rat liver hepatocytes
  IC50: 28.7 µM

## Nc1ccn([C@@H]2O[C@H](CO)[C@@H](O)[C@@H]2O)c(=O)n1 [Cytosar, cytarabine, reference compound]
[2]
  Band (s/n) neutrophils: 1,1±0,4 %
  Blasts: 65,9±2,8 %
  Destroyed cells: 9,0±1,6 %
  Eosinophils: 0,4±0,3%
  Lymphocytes: 13,7±1,6%
  Monocytes: 3,5±0,6 %
  Myelocytes: 1,1±0,3 %
  Promyelocytes: 0,2±0,1%
  Segmented (s/i) neutrophils: 6,7±1,1%
[3]
  Band (s/n) neutrophils: 1,0±0,1%
  Blasts: 73,5±2,0 %
  Destroyed cells: 8,8±1,0 %
  Eosinophils: 0,0±0,0%
  Lymphocytes: 11,5±1,0 %
  Monocytes: 2,3±0,4%
  Myelocytes: 0,0±0,0%
  Promyelocytes: 0,0±0,000%
  Segmented (s/i) neutrophils: 3,0±0,4 %
[4]
  Band (s/n) neutrophils: 0,6±0,3%
  Blasts: 63,5±3,4 %
  Destroyed cells: 8,9±2,2 %
  Eosinophils: 0,1±0,1%
  Lymphocytes: 17,2±2,0%
  Monocytes: 4,6±1,2%
  Myelocytes: 0,7±0,4%
  Promyelocytes: 0,0±0,0%
  Segmented (s/i) neutrophils: 6,1±0,9%
[5]
  Band (s/n) neutrophils: 0,4±0,2%
  Blasts: 78,7±1,4 %
  Destroyed cells: 4,8±1,4 %
  Eosinophils: 0,0±0,0%
  Lymphocytes: 11,4±0,8%
  Monocytes: 2,2±0,4%
  Myelocytes: 0,2±0,1%
  Promyelocytes: 0,0±0,0%
  Segmented (s/i) neutrophils: 2,4±0,6%
[6]
  Band (s/n) neutrophils: 1,2±0,5%
  Blasts: 65,4±3,9 %
  Destroyed cells: 6,3±1,7 %
  Eosinophils: 1,0±0,9%
  Lymphocytes: 12,5±1,7%
  Monocytes: 3,4±0,8%
  Myelocytes: 1,4±0,6%
  Promyelocytes: 0,9±0,6%
  Segmented (s/i) neutrophils: 5,6±1,2%
[7]
  Band (s/n) neutrophils: 3,6±0,5%
  Blasts: 50,2±2,8%
  Destroyed cells: 7,8±0,6 %
  Eosinophils: 0,6±0,3%
  Lymphocytes: 6,6±0,7%
  Monocytes: 1,2±0,2 %
  Myelocytes: 16,0±1,4 %
  Promyelocytes: 0,0±0,0%
  Segmented (s/i) neutrophils: 14,1±1,2 %
[8]
  Band (s/n) neutrophils: 3,5±1,0 %
  Blasts: 59,5±3,7 %
  Destroyed cells: 12,4±1,7 %
  Eosinophils: 4,0±0,2%
  Lymphocytes: 8,4 ±0,9%
  Monocytes: 4,9±1,2 %
  Myelocytes: 1,8±0,4%
  Promyelocytes: 0,0±0,0%
  Segmented (s/i) neutrophils: 9,2±2,3%
[9]
  Band (s/n) neutrophils: 1,8±0,2 %
  Blasts: 0,0±0,0%
  Destroyed cells: 0,0±0,0%
  Eosinophils: 2,1±0,4%
  Lymphocytes: 28,0±1,2%
  Monocytes: 6,6±0,4 %
  Myelocytes: 0,0±0,0%
  Promyelocytes: 0,0±0,0%
  Segmented (s/i) neutrophils: 61,5±1,2%

## COc1cccc2c1C(=O)c1c(O)c3c(c(O)c1C2=O)C[C@@](O)(C(=O)CO)C[C@@H]3O[C@H]1C[C@H](N)[C@H](O)[C@H](C)O1 [Doxorubicin, doxorubicin, reference compound]
[10]
  LD50 at 1 week: 10.8 mg/kg
[2]
  Band (s/n) neutrophils: 1,8±0,5%
  Blasts: 65,6±2,6 %
  Destroyed cells: 11,4±2,2 %
  Eosinophils: 3,8±2,4%
  Lymphocytes: 15,0±1,8%
  Monocytes: 5,3±1,2%
  Myelocytes: 3,3±1,2%
  Promyelocytes: 0,0±0,000%
  Segmented (s/i) neutrophils: 5,8±0,7%
[3]
  Band (s/n) neutrophils: 1,2±0,1 %
  Blasts: 67,2±0,9 %
  Destroyed cells: 13,4±0,5 %
  Eosinophils: 0,0±0,0%
  Lymphocytes: 9,8±0,1 %
  Monocytes: 1.7±0,2%
  Myelocytes: 0,0±0,0%
  Promyelocytes: 0,0±0,0%
  Segmented (s/i) neutrophils: 6,7±0,4%
[4]
  Band (s/n) neutrophils: 0,7±0,2%
  Blasts: 64,3±3,7%
  Destroyed cells: 13,0±2,8 %
  Eosinophils: 0,1±0,1%
  Lymphocytes: 15,0±2,9%
  Monocytes: 1.6±0,5%
  Myelocytes: 0,6±0,3%
  Promyelocytes: 0,0±0,0%
  Segmented (s/i) neutrophils: 4,9±0,9%
[5]
  Band (s/n) neutrophils: 0,3±0,1%
  Blasts: 76,4±1,7 %
  Destroyed cells: 9,0±1,1*^ %
  Eosinophils: 0,2±0,1%
  Lymphocytes: 9,9±1,3%
  Monocytes: 1.9±0,6%
  Myelocytes: 0,2±0,1%
  Promyelocytes: 0,0±0,0%
  Segmented (s/i) neutrophils: 2,2±0,3%
[6]
  Band (s/n) neutrophils: 0,5±0,4%
  Blasts: 68,4±3,6 %
  Destroyed cells: 5,6±1,4 %
  Eosinophils: 0,8±0,7%
  Lymphocytes: 13,2±2,4%
  Monocytes: 5.2±1,5%
  Myelocytes: 0,9±0,8%
  Promyelocytes: 0,0±0,0%
  Segmented (s/i) neutrophils: 5,5±1,2%
[7]
  Band (s/n) neutrophils: 3,4±0,5%
  Blasts: 58,4±1,9%
  Destroyed cells: 15,1±1,1 %
  Eosinophils: 0,7±0,3%
  Lymphocytes: 6,1±0,7%
  Monocytes: 1.6±0,3 %
  Myelocytes: 4,0±0,4 %
  Promyelocytes: 0,0±0,0%
  Segmented (s/i) neutrophils: 10,8±1,0%
[8]
  Band (s/n) neutrophils: 0,8±0,2%
  Blasts: 45,4±1,9 %
  Destroyed cells: 24,0±4,0 %
  Eosinophils: 0,0±0,0%
  Lymphocytes: 9,7±1,5%
  Monocytes: 11.2±2,3 %
  Myelocytes: 0,0±0,0%
  Promyelocytes: 0,0±0,0%
  Segmented (s/i) neutrophils: 9,1±1,5%
[9]
  Band (s/n) neutrophils: 1,5±0,2%
  Blasts: 0,0±0,0%
  Destroyed cells: 0,0±0,0%
  Eosinophils: 1,7±0,2%
  Lymphocytes: 28,1±0,9%
  Monocytes: 6,1±0,4%
  Myelocytes: 0,0±0,0%
  Promyelocytes: 0,0±0,0%
  Segmented (s/i) neutrophils: 62,6±1,0%
